Data on 11 compounds can be found in PubChem BioAssay (NCI).

Test systems include A549 NSCLC; DU-145 prostate; HL-60(TB) leukemia; HOP-62 NSCLC; MCF7 breast; MDA-MB-231 breast; OVCAR-8 ovarian; SW-620 colon; UACC-62 melanoma; UO-31 renal.
Holding throughout (assay): inhibition of tumour cell growth, NCI panel, 48 h

Molecules are shown by their SMILES.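 Interpolation was linear, between the two tested concentrations surrounding the appropriate level; five concentrations were tested over 48 hours in 96-well plates. TGI is the concentration that stops growth completely.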 A value given as a limit tells only on which side of the number the result lay.

Regarding `OCC1OC(n2cnc3cccnc32)CC1O` (stereo not given), the TGI with A549 NSCLC, in the experiment on DU-145 prostate, with HL-60(TB) leukemia, with HOP-62 NSCLC, in the experiment with MCF7 breast and in the experiment on MDA-MB-231 breast was > 100 µM throughout. Moreover, the TGI in the experiment with OVCAR-8 ovarian, in the experiment with SW-620 colon, in the experiment with UACC-62 melanoma and in the experiment with UO-31 renal was > 100 µM in each case.
For the compound `CN(C(=O)C1(C(=O)C=[N+]=[N-])CC1)c1ccccc1`, the TGI with A549 NSCLC, with DU-145 prostate, in the experiment on HL-60(TB) leukemia, in the experiment on HOP-62 NSCLC, with MCF7 breast and with MDA-MB-231 breast was > 100 µM throughout. Further, the TGI in the experiment with OVCAR-8 ovarian, with SW-620 colon, in the experiment with UACC-62 melanoma and with UO-31 renal was > 100 µM throughout.
Consider `CCOC(=O)c1ccc2nc(NC(=O)COC(=O)CSc3nc(C)cc(C)n3)sc2c1`, for which the TGI in the experiment on A549 NSCLC is > 100 µM; in the experiment on DU-145 prostate it was > 100 µM; in the experiment on HL-60(TB) leukemia it was 33.9 µM; with HOP-62 NSCLC, 50.5 µM; in the experiment with MCF7 breast it was > 100 µM; in the experiment on MDA-MB-231 breast, > 100 µM. Further, the TGI in the experiment with OVCAR-8 ovarian was > 100 µM; in the experiment with SW-620 colon, > 100 µM; with UACC-62 melanoma, > 100 µM; with UO-31 renal it was 38.5 µM.
Turning to `C/C(=C/CO[Si](C)(C)C(C)(C)C)C(=O)N(C)c1ccccc1I`, the TGI in the experiment with A549 NSCLC is 32.4 µM; in the experiment on DU-145 prostate, 36.7 µM; with HL-60(TB) leukemia, 32 µM; in the experiment with HOP-62 NSCLC, 36.5 µM; in the experiment on MCF7 breast it was 30.6 µM; in the experiment on MDA-MB-231 breast, 28.3 µM. Besides, the TGI is 32.2 µM with OVCAR-8 ovarian, 35.8 µM in the experiment with SW-620 colon, 28 µM with UACC-62 melanoma and 28 µM in the experiment with UO-31 renal.
Turning to `O=C1/C(=C/c2ccccc2)CCc2ccc(Cl)nc21`, the TGI stood at 38.4 µM in the experiment on A549 NSCLC; 24.4 µM with DU-145 prostate; 0.705 µM in the experiment with HL-60(TB) leukemia; 42 µM in the experiment on HOP-62 NSCLC; 13.2 µM in the experiment with MCF7 breast; 40.6 µM in the experiment on MDA-MB-231 breast. The TGI is > 100 µM in the experiment with OVCAR-8 ovarian, 18.6 µM in the experiment on SW-620 colon, 22.8 µM with UACC-62 melanoma and 20.2 µM in the experiment with UO-31 renal.
Consider `CCOC(=O)c1nc2c3c(ncn2n1)Oc1c(c(-c2ccccc2)nn1-c1ccccc1)C3c1ccc(Cl)cc1` (stereo not given), for which the TGI in the experiment with A549 NSCLC, in the experiment with DU-145 prostate, in the experiment on HL-60(TB) leukemia, with HOP-62 NSCLC, in the experiment with MCF7 breast and in the experiment with MDA-MB-231 breast was > 100 µM each time. Besides, the TGI with OVCAR-8 ovarian, in the experiment with SW-620 colon, with UACC-62 melanoma and in the experiment on UO-31 renal was > 100 µM throughout.
Regarding `CCCCC[C@@H]1OCO[C@@]2(C)/C=C(C)/C=C/C(=O)O[C@H]([C@@H](C)[C@@H](O)[C@H](C)[C@@]3(O)C[C@@H](O[C@H]4C[C@@H](O)[C@H](O)[C@@H](C)O4)[C@H](C)[C@@H](C)O3)[C@@H](OC)/C=C/C=C(\C)C[C@@H]1[C@@H]2O` (stereo in doubt), the TGI in the experiment with A549 NSCLC was found to be 0.733 µM; in the experiment on DU-145 prostate, 7.9 µM; with HL-60(TB) leukemia, 0.0587 µM; with HOP-62 NSCLC it was 7.02 µM; with MCF7 breast, 3.32 µM; with MDA-MB-231 breast, 1.59 µM. For the same compound, the TGI in the experiment on OVCAR-8 ovarian was 7.38 µM; in the experiment with SW-620 colon, 6.67 µM; in the experiment on UACC-62 melanoma it was < 0.005 µM.
For `Clc1nc(-[n+]2ccc(-c3ccncc3)cc2)nc(Nc2ccccc2)c1Cl`, the TGI in the experiment with A549 NSCLC, with DU-145 prostate, with HL-60(TB) leukemia, in the experiment with HOP-62 NSCLC, in the experiment on MCF7 breast and with MDA-MB-231 breast was > 100 µM in each case. In addition, the TGI in the experiment on SW-620 colon, with UACC-62 melanoma and in the experiment on UO-31 renal was > 100 µM each time.
As to `CC1(C)O[C@@H](CO)[C@H]([C@@]23OC[C@H]4OC(C)(C)OC4[C@@H]2OC(C)(C)O3)O1` (stereo not given in full), the TGI with A549 NSCLC, in the experiment with DU-145 prostate, in the experiment on HL-60(TB) leukemia, with HOP-62 NSCLC, with MCF7 breast and in the experiment on MDA-MB-231 breast was > 100 µM in each case. In addition, the TGI with OVCAR-8 ovarian, in the experiment with SW-620 colon and in the experiment on UO-31 renal was > 100 µM each time.
In the case of `Cc1cc(Cc2c(F)c(F)c(Cc3cc(C)no3)c(F)c2F)on1`, the TGI was 25.8 µM in the experiment on A549 NSCLC; > 100 µM in the experiment with DU-145 prostate; > 100 µM with HL-60(TB) leukemia; 62.8 µM with HOP-62 NSCLC; > 100 µM in the experiment with MCF7 breast; > 100 µM in the experiment with MDA-MB-231 breast. Also, the TGI in the experiment with OVCAR-8 ovarian, with UACC-62 melanoma and with UO-31 renal was > 100 µM each time.
As to `CCN(CC)CCO/N=C1\CC[C@H]2[C@@H]3CC=C4C[C@@H](O)CC[C@]4(C)[C@H]3CC[C@]12C`, the TGI with DU-145 prostate was 65.7 µM; in the experiment with HL-60(TB) leukemia, 44.5 µM; in the experiment with HOP-62 NSCLC, 35.2 µM; in the experiment with MCF7 breast, 31.6 µM; with MDA-MB-231 breast, 41.2 µM; with OVCAR-8 ovarian, 64.6 µM. Moreover, the TGI in the experiment on SW-620 colon is 30.4 µM; in the experiment with UACC-62 melanoma, 31.1 µM; with UO-31 renal, 32.1 µM.
